From patent publication US8546451B2 (priority 2005, dated 2013)
Where “and” joins values, the source holds several entries; their conditions need not be identical. Identical values can stand only once.

Assays:
[1] = target: retinoid X receptor (RXR-α) (Homo sapiens (Human), UniProt P19793); experiment: Cross-reactivity transcriptional activation assay, RXR-α; assay type: cell-based; details: agonist and antagonist modes
Text: (§1) Compound IV was screened for cross-reactivity against rat isoforms of glucocorticoid receptor (GR), mineralocorticoids receptor (MR), progesterone receptor (PR), androgen receptor (AR) and human isoforms of farnesoid X receptor (FXR), liver X receptor (LXR), peroxisome proliferator-activated receptors (PPAR-α and PPAR-γ), and retinoid X receptor (RXR-α) in both agonist and antagonist modes in transcriptional activation assays.

[2] = target: farnesoid X receptor (FXR) (Homo sapiens (Human), UniProt Q96RI1); experiment: Cross-reactivity transcriptional activation assay, FXR; assay type: cell-based; details: agonist and antagonist modes
Text: as §1

[3] = tested on: serum testosterone; experiment: Recovery of testosterone levels following suppression in rats; assay type: in vivo, Sprague-Dawley rats
Text: Thirty-five (35) male Sprague-Dawley rats weighing approximately 200 g were maintained on a 12-h light/dark cycle with food (2016 Teklad Global 16% Protein Rodent Diet, Harlan, Madison, Wis.) and water available ad libitum. The animal protocol was reviewed and approved by the Institutional Animal Care and Use Committee of the University of Tennessee.
The test article for this study was weighed and dissolved in PEG 300 (100%) (Acros Organics, NJ) to prepare the appropriate dose formulations. Animals were randomly assigned to one of the ten treatment groups (n =5 animals/group). The animals were housed in groups of 2 to 3 animals per cage. Group 1 was sacrificed at the initiation of the study (Day 1) for determination of baseline testosterone levels in intact animals. Groups 2-7 received daily doses of 1, 3, or 30 mg/kg via oral gavage (˜200 uL) for three days. Groups 2, 3, and 4 were sacrificed on Day 4 to measure maximal testosterone suppression. Groups 5, 6, and 7 were allowed to recover for 14 days with a drug free washout period.

[4] = target: CYP1A2 (Homo sapiens (Human), UniProt P05177); experiment: CYP450 inhibition in vitro, CYP1A2; assay type: in vitro ADME; details: at concentrations <30 μM
[5] = tested on: LH, FSH, testosterone and androgen-dependent organ weights; experiment: Suppression of LH and testosterone hormone levels in intact and ORX rats; assay type: in vivo, Sprague-Dawley rats; details: for Testosterone levels: LLOQ 0.08 ng/mL
[6] = tested on: CYP3A4/5; experiment: CYP450 inhibition in vitro, CYP3A4/5; assay type: in vitro ADME; details: at concentrations <30 μM
[7] = target: androgen receptor (AR) (Rattus norvegicus (Rat), UniProt P15207); experiment: DES versus Compound IV, AR crossreaction (FIG. 12B); assay type: cell-based
[8] = tested on: dogs; experiment: Single and repeated oral administration toxicity in dogs; assay type: in vivo
Text: Compound IV was well-tolerated by rats and dogs after single and repeated oral administration (up to 28 days).

[9] = Neuropharmacological and pulmonary safety pharmacology; details: in vivo
[10] = tested on: LH, serum PSA, free testosterone and total testosterone; experiment: Compound IV study on human males; assay type: in vivo
[11] = Intact, 0.3 mg/kg per day s.c., 14 days
[12] = Intact, 1 mg/kg per day s.c., 14 days
[13] = Intact, 3 mg/kg per day s.c., 14 days
[14] = Intact, 10 mg/kg per day s.c., 14 days
[15] = Intact, 30 mg/kg per day s.c., 14 days
[16] = ORX, 0.3 mg/kg per day s.c., 14 days
[17] = ORX, 1 mg/kg per day s.c., 14 days
[18] = ORX, 3 mg/kg per day s.c., 14 days
[19] = ORX, 10 mg/kg per day s.c., 14 days
[20] = ORX, 30 mg/kg per day s.c., 14 days

Chain of retinoid X receptor (RXR-α) (P19793 whole entry, canonical isoform): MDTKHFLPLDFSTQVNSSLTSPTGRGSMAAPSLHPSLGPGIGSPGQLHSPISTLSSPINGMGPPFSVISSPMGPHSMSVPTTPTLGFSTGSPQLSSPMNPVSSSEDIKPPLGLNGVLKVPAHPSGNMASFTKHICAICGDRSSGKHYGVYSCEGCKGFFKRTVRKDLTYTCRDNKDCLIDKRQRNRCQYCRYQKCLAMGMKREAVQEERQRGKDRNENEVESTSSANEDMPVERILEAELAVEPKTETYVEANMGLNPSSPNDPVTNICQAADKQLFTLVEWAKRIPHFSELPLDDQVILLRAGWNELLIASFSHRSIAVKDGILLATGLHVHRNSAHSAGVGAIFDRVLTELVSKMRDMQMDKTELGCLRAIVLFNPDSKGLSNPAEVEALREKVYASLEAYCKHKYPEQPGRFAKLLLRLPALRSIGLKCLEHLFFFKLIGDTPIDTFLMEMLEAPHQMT
Chain of CYP1A2 (P05177 whole entry): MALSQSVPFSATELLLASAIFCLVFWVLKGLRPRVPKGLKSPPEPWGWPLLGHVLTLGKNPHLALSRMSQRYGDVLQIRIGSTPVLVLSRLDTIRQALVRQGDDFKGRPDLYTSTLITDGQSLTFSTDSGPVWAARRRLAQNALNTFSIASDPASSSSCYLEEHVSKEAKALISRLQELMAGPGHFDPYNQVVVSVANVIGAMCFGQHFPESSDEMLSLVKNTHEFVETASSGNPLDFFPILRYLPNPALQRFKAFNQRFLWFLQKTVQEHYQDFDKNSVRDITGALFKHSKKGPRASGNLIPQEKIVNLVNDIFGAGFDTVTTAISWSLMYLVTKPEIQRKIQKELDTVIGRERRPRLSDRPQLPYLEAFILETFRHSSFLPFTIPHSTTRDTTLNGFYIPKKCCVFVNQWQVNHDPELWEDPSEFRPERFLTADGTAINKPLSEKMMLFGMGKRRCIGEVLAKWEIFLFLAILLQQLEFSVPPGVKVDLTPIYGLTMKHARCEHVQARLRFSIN
Chain of androgen receptor (AR) (P15207 whole entry S389L): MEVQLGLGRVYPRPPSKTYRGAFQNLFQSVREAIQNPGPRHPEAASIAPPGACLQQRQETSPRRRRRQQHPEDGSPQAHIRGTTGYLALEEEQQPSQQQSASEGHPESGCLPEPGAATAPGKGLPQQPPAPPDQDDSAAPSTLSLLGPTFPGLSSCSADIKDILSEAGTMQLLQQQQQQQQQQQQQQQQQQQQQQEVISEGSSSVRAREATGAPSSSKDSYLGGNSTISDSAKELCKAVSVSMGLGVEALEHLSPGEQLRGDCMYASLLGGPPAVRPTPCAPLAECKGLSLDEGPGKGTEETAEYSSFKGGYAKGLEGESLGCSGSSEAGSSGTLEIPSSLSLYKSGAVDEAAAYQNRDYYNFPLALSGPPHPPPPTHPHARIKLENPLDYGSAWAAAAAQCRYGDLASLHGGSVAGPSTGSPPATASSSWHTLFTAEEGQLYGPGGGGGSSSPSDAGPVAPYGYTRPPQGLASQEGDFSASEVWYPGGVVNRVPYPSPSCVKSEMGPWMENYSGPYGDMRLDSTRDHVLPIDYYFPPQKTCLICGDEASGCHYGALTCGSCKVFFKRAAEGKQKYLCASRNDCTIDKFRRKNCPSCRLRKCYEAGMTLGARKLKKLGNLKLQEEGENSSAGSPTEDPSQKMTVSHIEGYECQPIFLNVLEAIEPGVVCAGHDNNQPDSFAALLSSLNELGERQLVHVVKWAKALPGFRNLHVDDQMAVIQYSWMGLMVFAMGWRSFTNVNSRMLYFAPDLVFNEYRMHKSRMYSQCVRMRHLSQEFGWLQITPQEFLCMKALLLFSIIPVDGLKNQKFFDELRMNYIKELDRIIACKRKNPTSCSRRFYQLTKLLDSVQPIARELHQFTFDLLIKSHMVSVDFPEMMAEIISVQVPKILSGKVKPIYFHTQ
Chain of farnesoid X receptor (FXR) (Q96RI1 whole entry): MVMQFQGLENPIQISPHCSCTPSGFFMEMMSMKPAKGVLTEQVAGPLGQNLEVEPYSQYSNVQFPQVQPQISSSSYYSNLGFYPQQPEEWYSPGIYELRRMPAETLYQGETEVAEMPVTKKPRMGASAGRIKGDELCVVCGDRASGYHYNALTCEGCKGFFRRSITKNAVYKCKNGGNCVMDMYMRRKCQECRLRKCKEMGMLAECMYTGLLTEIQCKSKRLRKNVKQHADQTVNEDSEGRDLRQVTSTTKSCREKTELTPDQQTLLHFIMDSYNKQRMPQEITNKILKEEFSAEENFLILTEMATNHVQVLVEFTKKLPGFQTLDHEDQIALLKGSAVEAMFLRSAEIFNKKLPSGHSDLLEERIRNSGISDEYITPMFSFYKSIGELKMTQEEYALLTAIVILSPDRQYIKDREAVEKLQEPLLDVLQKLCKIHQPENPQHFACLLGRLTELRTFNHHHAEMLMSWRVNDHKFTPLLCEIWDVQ

SMILES: O=C(c1ccc(O)c(F)c1)N(c1ccc(O)cc1)c1ccc(F)cc1 [Compound IV, 3-fluoro-N-(4-fluorophenyl)-4-hydroxy-N-(4-hydroxyphenyl)benzamide]
- agonist or antagonist activity [1]: did not display any agonist or antagonist activity
- agonist or antagonist activity [2]: did not display any agonist or antagonist activity
- serum testosterone levels ([3]; 1 mg/kg oral for three days, after 14 day recovery): 3.3 ± 1.92 ng/mL
- serum testosterone suppression ([3]; 1 mg/kg oral for three days, no recovery): No significant suppression
- serum testosterone levels ([3]; 3 mg/kg oral for three days, after 14 day recovery): 3.00 ± 1.06 ng/mL
- serum testosterone levels ([3]; 3 mg/kg oral for three days, no recovery, baseline 6.4±3.1): 1.47 ± 0.26 ng/mL
- serum testosterone levels ([3]; 30 mg/kg oral for three days, after 14 day recovery): 3.8 ± 1.72 ng/mL
- serum testosterone levels ([3]; 30 mg/kg oral for three days, no recovery, baseline 6.4±3.1): 1.62 ± 0.49 ng/mL
- reversibility of pharmacologic castration ([3]; rats, within 14 days of recovery): reversible
- inhibition of CYP1A2 [4]: does not inhibit
- FSH [5, 11]: 17.3±6.4 ng/mL and 17.3^b ng/mL
- LH [5, 11]: 0.863±0.384 ng/mL and 0.863^b ng/mL
- Levator Ani Muscle weight [5, 11]: 86.9±10.0 % of Intact and 86.9^a,b % of Intact
- Prostate weight [5, 11]: 84.0±19.2 % of Intact and 84.0^b % of Intact
- Seminal Vesicles weight [5, 11]: 76.2±7.8 % of Intact and 76.2^a,b % of Intact
- Testosterone levels [5, 11]: 2.6 ± 1.7 ng/mL
- FSH [5, 12]: 15.7±7.3 ng/mL and 15.7^b ng/mL
- LH [5, 12]: 0.704±0.530 ng/mL and 0.704^b ng/mL
- Levator Ani Muscle weight [5, 12]: 82.1±12.1 % of Intact and 82.1^a,b % of Intact
- Prostate weight [5, 12]: 75.2±20.7 % of Intact and 75.2^b % of Intact
- Seminal Vesicles weight [5, 12]: 66.3±27.2 % of Intact and 66.3^a,b % of Intact
- Testosterone levels [5, 12]: 1.6 ± 1.0 ng/mL
- FSH [5, 13]: 18.4±7.7 ng/mL and 18.4^b ng/mL
- LH [5, 13]: 0.395±0.302 ng/mL and 0.395^a,b ng/mL
- Levator Ani Muscle weight [5, 13]: 65.2±4.4 % of Intact and 65.2^a % of Intact
- Prostate weight [5, 13]: 68.2±8.1 % of Intact and 68.2^a,b % of Intact
- Seminal Vesicles weight [5, 13]: 51.8±28.5 % of Intact and 51.8^a,b % of Intact
- Testosterone levels [5, 13]: 0.7 ± 0.4 ng/mL
- FSH [5, 14]: 9.2±4.0 ng/mL and 9.25^a,b ng/mL
- LH [5, 14]: 0.226±0.165 ng/mL and 0.226^a,b ng/mL
- Levator Ani Muscle weight [5, 14]: 57.8±11.2 % of Intact and 57.8^a % of Intact
- Prostate weight [5, 14]: 45.1±20.0 % of Intact and 45.1^a,b % of Intact
- Seminal Vesicles weight [5, 14]: 19.1±7.0 % of Intact and 19.1^a % of Intact
- Testosterone levels [5, 14]: BLOQ
- FSH [5, 15]: 6.3±1.8 ng/mL and 6.25^a,b ng/mL
- LH [5, 15]: 0.236±0.176 ng/mL and 0.236^a,b ng/mL
- Levator Ani Muscle weight [5, 15]: 58.1±4.7 % of Intact and 58.1^a % of Intact
- Prostate weight [5, 15]: 43.6±8.8 % of Intact and 43.6^a,b % of Intact
- Seminal Vesicles weight [5, 15]: 17.9±3.3 % of Intact and 17.9^a % of Intact
- Testosterone levels [5, 15]: BLOQ
- FSH [5, 16]: 115±17 ng/mL and 116^a ng/mL
- LH [5, 16]: 15.4±2.9 ng/mL and 15.4^a ng/mL
- Levator Ani Muscle weight [5, 16]: 54.5±6.6 % of Intact and 54.5^a % of Intact
- Prostate weight [5, 16]: 19.0±4.2 % of Intact and 19.0^a,b % of Intact
- Seminal Vesicles weight [5, 16]: 12.2±1.3 % of Intact and 12.2^a % of Intact
- FSH [5, 17]: 114±22 ng/mL and 114^a ng/mL
- LH [5, 17]: 13.5±2.2 ng/mL and 13.5^a ng/mL
- Levator Ani Muscle weight [5, 17]: 49.6±7.0 % of Intact and 49.6^a % of Intact
- Prostate weight [5, 17]: 17.4±3.4 % of Intact and 17.4^a % of Intact
- Seminal Vesicles weight [5, 17]: 16.6±5.4 % of Intact and 16.6^a % of Intact
- FSH [5, 18]: 65.2±31.9 ng/mL and 65.2^a ng/mL
- LH [5, 18]: 6.5 ± 5.6 ng/mL and 6.5 ng/mL
- Levator Ani Muscle weight [5, 18]: 53.6±10.0 % of Intact and 53.6^a % of Intact
- Prostate weight [5, 18]: 19.6±6.7 % of Intact and 19.6^a % of Intact
- Seminal Vesicles weight [5, 18]: 16.5±4.8 % of Intact and 16.5^a % of Intact
- FSH [5, 19]: 27.6±8.2 ng/mL and 27.6^b ng/mL
- LH [5, 19]: 0.425±0.135 ng/mL and 0.425^a,b ng/mL
- Levator Ani Muscle weight [5, 19]: 51.1±4.9 % of Intact and 51.1^a % of Intact
- Prostate weight [5, 19]: 22.9±5.4 % of Intact and 22.9^a,b % of Intact
- Seminal Vesicles weight [5, 19]: 13.3±1.9 % of Intact and 13.3^a % of Intact
- FSH [5, 20]: 15.1±4.1 ng/mL and 15.1^b ng/mL
- LH [5, 20]: 0.368±0.119 ng/mL and 0.368^a,b ng/mL
- Levator Ani Muscle weight [5, 20]: 49.2±4.2 % of Intact and 49.2^a,b % of Intact
- Prostate weight [5, 20]: 20.6±2.1 % of Intact and 20.6^a,b % of Intact
- Seminal Vesicles weight [5, 20]: 12.9±2.1 % of Intact and 12.9^a % of Intact
- Testosterone levels ([5]; ORX, all treated groups (0.3-30 mg/kg per day)): BLOQ
- doses that significantly suppressed LH levels ([5]; intact and ORX animals, vs respective controls): ≥ 10 mg/kg per day
- daily doses with statistically significant LH reductions ([5]; intact animals): ≥ 3 mg/kg
- doses with significant FSH reductions ([5]; intact animals): ≥ 10 mg/kg/day
- doses with significant testosterone reductions ([5]; intact animals): ≥ 3 mg/kg per day
- suppression of serum testosterone ([5]; intact male rats, 3, 10 and 300 mg/kg, after 24 h, 72 h and 168 h (FIG. 9)): Rapid and potent suppression
- inhibition of CYP3A4/5 [6]: does not inhibit
- crossreaction with AR [7]: did not
- tolerability ([8]; dogs, single and repeated oral administration (up to 28 days)): well-tolerated
- pathologic changes in kidney, liver, heart and other non-target-related organs ([8]; dogs, up to 28 days oral): no pathologic changes observed
- toxicity findings ([8]; male or female dogs, oral, up to 28 days): no serious physical signs, body weight effects, clinical pathology changes, ophthalmologic, electrocardiographic, or histopathologic changes
- neuropharmacological or pulmonary effects [9]: No neuropharmacological or pulmonary effects were observed
- Free Testosterone, mean change from baseline ([10]; 100 mg): −17.0%
- LH, mean change from baseline ([10]; 100 mg): 20.7%
- Serum PSA, mean change from baseline ([10]; 100 mg): −9.2%
- Total Testosterone, mean change from baseline ([10]; 100 mg): 3.9%
- decrease of PSA levels ([10]; 100 mg): 9.2%
- decrease of free testosterone levels ([10]; 100 mg): 17.0%
- Free Testosterone, mean change from baseline ([10]; 300 mg): −18.5%
- LH, mean change from baseline ([10]; 300 mg): 46.9%
- Serum PSA, mean change from baseline ([10]; 300 mg): −24.4%
- Total Testosterone, mean change from baseline ([10]; 300 mg): 7.3%
- decrease of PSA levels ([10]; 300 mg): 24.4%
- decrease of free testosterone levels ([10]; 300 mg): 18.5%
- Free Testosterone, mean change from baseline ([10]; 600 mg): −72.7%
- LH, mean change from baseline ([10]; 600 mg): 27.6%
- Serum PSA, mean change from baseline ([10]; 600 mg): −27.5%
- Total Testosterone, mean change from baseline ([10]; 600 mg): −51.9%
- decrease of PSA levels ([10]; 600 mg): 27.5%
- decrease of free testosterone levels ([10]; 600 mg): 72.7%
- decrease of total testosterone level ([10]; 600 mg): 51.9%
- Free Testosterone, mean change from baseline ([10]; 1000 mg): −53.2%
- LH, mean change from baseline ([10]; 1000 mg): 29.2%
- Serum PSA, mean change from baseline ([10]; 1000 mg): −29.9%
- Total Testosterone, mean change from baseline ([10]; 1000 mg): −47.9%
- decrease of PSA levels ([10]; 1000 mg): 29.9%
- decrease of free testosterone levels ([10]; 1000 mg): 53.2%
- decrease of total testosterone level ([10]; 1000 mg): 47.9%
- changes of PSA levels ([10]; 10 and 30 mg doses): No changes
